Laboratory results as given in patent EP0283349A1, “Process for obtaining tannic principles of vegetable origin, cosmetologic and pharmaceutical composition containing the tannic principle obtained by the process” (Lamaison, Jean-Louis, priority 1987, dated 1988).

Molecular target: élastase pancréatique porcine (Sus scrofa, UniProt P00772)
Experiment: Elastase inhibition (method of SHINOGI et al., substrate Boc-Ala-ONp)
Assay type: biochemical
Conditions: mass of inhibitor giving 50 % inhibition after 30 minutes; referred to the dry plant drug for plant extracts, real mass for defined principles
Procedure: Les dosages d'activités inhibitrices de l'élastase, de la trypsine et de l'α-chymotrypsine ont été réalisés selon la méthode de SHINOGI et al. (1), la quantité d'inhibiteur étant adaptée de manière à obtenir une inhibition voisine de 50 % (I50) après 30 minutes, les extraits étant généralement préparés à partir de 0,5 g de poudre (250) de plante sèche dans 20 ml d'éthanol à 50 % V/V, les principes définis en solution à 1 mg/ml d'éthanol à 50 % V/V.

Chain of élastase pancréatique porcine (P00772 27-266): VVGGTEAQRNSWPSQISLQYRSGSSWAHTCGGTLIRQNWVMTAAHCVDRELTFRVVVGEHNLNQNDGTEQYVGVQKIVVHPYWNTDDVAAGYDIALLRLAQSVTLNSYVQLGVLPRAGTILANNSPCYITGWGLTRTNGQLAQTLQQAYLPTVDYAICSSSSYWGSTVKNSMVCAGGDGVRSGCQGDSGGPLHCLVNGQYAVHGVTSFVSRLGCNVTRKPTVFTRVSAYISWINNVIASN

| Molecule | I 50 Elas-tase [µg] |
| --- | --- |
| O=C(O)c1cc(O)c(O)c(O)c1 [Acide gallique] | 100 |
| Ethoxazo-rutine | 250 |
| Acide tannique | 50 |
| O=c1c(O)c(-c2ccc(O[C@@H]3O[C@H](CO)[C@@H](O)[C@H](O)[C@H]3O)c(O)c2)oc2cc(O)cc(O)c12 [Quercétine 4'-Glucoside] | 250 |
| Catéchine-épicatéchine | 35 |
| O=c1c(O)c(-c2ccc(O)cc2O)oc2cc(O)cc(O)c12 [Morine] | 60 |
| O=c1c(O[C@@H]2O[C@H](CO)[C@H](O)[C@H](O)[C@H]2O)c(-c2ccc(O)c(O)c2)oc2cc(O)cc(O)c12 [Hypéroside] | 275 |
| C[C@@H]1O[C@@H](OC[C@H]2O[C@@H](Oc3c(-c4ccc(O)c(O)c4)oc4cc(O)cc(O)c4c3=O)[C@H](O)[C@@H](O)[C@@H]2O)[C@H](O)[C@H](O)[C@H]1O [Rutoside] | 150 |
| Hamamélitanin | 600 |
